One experiment deals with BafT_J3. Put plainly: Cellular screening, BaF3 TEL:JAK3 cells (Alamar Blue). Type of experiment: cell-based. Particulars: Mus musculus, 40 hr incubation. How it is done: (§1) For screening purposes, compounds were diluted in 96 well plates at a concentration of 20 μM. Plates were warmed at 37° C. for 30 minutes before the assay was performed.
(§2) The coding region encompassing nucleotides 1-487 of TEL was amplified by PCR using the oligonucleotides 5TEL (5′-GGAGGATCCTGATCTCTCTCGCTGTGAGAC-3′) [SEQ ID NO 14] and 3TEL (5′-AGGC GTCGACTTCTTCTTCATGGTTCTG-3′) [SEQ ID NO 15] and U937 mRNA as a template. A BamHI restriction site was incorporated into the 5TEL primer, and a Sal I restriction site was incorporated into the 3TEL primer. The regions encompassing the kinase domain of JAK2 (nucleotides 2994-3914; JAK2F 5′-ACGC GTCGACGGTGCCTTTGAAGACCGGGAT-3′ [SEQ ID NO 16]; JAK2R 5′-ATAGTTTAGCGGCCGCTCAGAATGAAGGTCATTT-3′) [SEQ ID NO 17] and JAK3 (nucleotides 2520-3469; JAK3F 5′-GAAGTCGACTATGCCTGCCAAGACCCCACGATCTT-3′) [SEQ ID NO 18] were generated by PCR using Taq DNA polymerase (Gibco/BRL) and U937 mRNA as a template. A Sal I restriction site was incorporated into the forward primer of JAK2 and JAK3, a Not I site was incorporated into the JAK2 reverse primer and a Xba I site was added to the reverse primer of JAK3.
The TEL/Jak3 fusion was prepared by ligation of the JAK3 Sal I/Not I cleaved kinase domain PCR product with the BamH I/Sal I restriction digested TEL product, followed by ligation of the ligation product into the BamH I/Not I digested pTRE2, to give the TEL/Jak3 fusion plasmid pTELJAK3.
(§3) The growth factor dependant myelomonocytic cell line BaF3 bearing the pTET-off plasmid (Clontech) was transfected with either pTELJAK2 or pTELJAK3, and the transfected cells were selected for growth-factor independent cell growth. The BaF3 wild-type cells were cultured in DMEM containing 10% FCS, 10% WEHI 3B conditioned medium. The BaF3 TELJAK cells ([…]) were cultured in DMEM 10% Tet-System Approved FBS (without WEHI 3B conditioned medium).
(§4) Cell suspensions were prepared by harvesting cells from culture. (the cells used in this test were in late log phase growth with high viability.) Cells were diluted in the appropriate growth medium, as described above, to 1.1× final concentration (from 50,000 cell/mL to 200,000 cell/mL, depending on cell line).
(§5) Compounds to be tested were added (10 μL, 10× final concentration) to a flat bottomed 96-well plate. The cellular suspension (90 μL per well) was then added, and the plate incubated for 40 hr at 37° C., 5% CO2. Alamar Blue 10 μL per well was added and the plates returned to the incubator for a further 4-6 hours. The plates were then read at 544 nm.
For orientation: The colour change of resazurin is a common sign of viable cells or microbes.

A further experiment deals with BafT_J2. Put plainly: Cellular screening, BaF3 TEL:JAK2 cells (Alamar Blue). It is filed as cell-based. Particulars: Mus musculus, 40 hr incubation. The procedure:
as §1, §2
A TEL/Jak2 fusion was generated by digestion of the TELPCR product with BamH I/Sal I restriction enzymes, digestion of the JAK2 PCR product with Sal I/Not I restriction enzymes, followed by ligation and subcloning of the ligation product into the mammalian expression Vector pTRE 2 (Clontech), which was prepared by digestion with BamH I-Not I restriction enzymes, to give the TEL/Jak2 fusion plasmid pTELJAK2.
as §3, §4, §5

For another experiment, the target named is T1, human JAK3 (Homo sapiens, UniProt P52333).
T1 construct: The kinase domain of human JAK3 was amplified; GST (N); made in house; host or cells: Sf9 (Spodoptera frugiperda) insect cells, baculovirus
T1 sequence (P52333 822-1111 limits assumed): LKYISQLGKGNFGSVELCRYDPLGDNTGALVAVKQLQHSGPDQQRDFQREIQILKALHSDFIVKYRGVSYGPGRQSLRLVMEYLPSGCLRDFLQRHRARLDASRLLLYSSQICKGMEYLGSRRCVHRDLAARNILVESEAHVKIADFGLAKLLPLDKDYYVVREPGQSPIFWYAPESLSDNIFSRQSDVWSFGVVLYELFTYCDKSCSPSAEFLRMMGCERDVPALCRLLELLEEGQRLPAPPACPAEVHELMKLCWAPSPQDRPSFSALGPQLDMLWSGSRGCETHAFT
Put plainly: JAK3 kinase enzyme assay (Alphascreen). Type of experiment: biochemical. Conditions: 80 or 625 um ATP. How it is done: (§6) For screening purposes, compounds (in 100% DMSO) were warmed at 37 degrees for at least 20 minutes before use. A […] stock was initially made in assay buffer, where the final concentration of DMSO was 0.3%. The stocks were then diluted in 384 well Optiplates (Packard) where the final concentration of the compound was 5 μM.
The kinase domain of human JAK3 was amplified from U937mRNA using the polymerase chain reaction with the following primers: […]
The JAK3 PCR products were cloned into the pDest20 destination expression vector (Gibco). The JAK3 plasmid was then transformed into competent DH10Bac cells (Gibco), and the recombinant baculovirus was prepared via Sf9 insect cell transfection.
(§7) Baculovirus preparations from each of the JAK family members were infected into one litre of Sf9 (Spodoptera frugiperda) cells (Invitrogen) grown in SF900II serum free medium (Invitrogen) to a cell density of approximately 2×10^6 cells/ml. Cells were infected with virus at a cell culture to virus stock ratio of 20:1. Cells were harvested and lysed 48 hours post infection. The GST-tagged JAK kinase domains were purified by affinity chromatography on a GSH agarose column (Scientifix).
(§8) Kinase assays were performed in 384 well Optiplates (Packard) using an Alphascreen Protein Tyrosine KinaseP100 detection kit The compounds were pre-incubated with affinity purified PTK domain in the presence of phosphotyrosine assay buffer (10 mM HEPES, pH 7.5, 100 mM MgCl2, 25 mM NaCl, 200 mM sodium vanadate and 0.1% Tween 20) for 20 minutes. The compounds were then incubated with substrate in the presence of either 80 or 625 um ATP for 60 or 90 minutes. The substrate used was either susbtrate-1 with the sequence biotin-EGPWLEEEEEAYGWMDF-NH2 [SEQ. ID. NO. 13] (final concentration 111 μM) or susbtrate-2 substrate with the sequence biotin-EQEDEPEGDYFEWLEPE (final concentration 133 μM). Alphascreen phosphotyrosine acceptor beads followed by streptavidin donor beads at a concentration of 1/100 in stop buffer were added to each well under subdued light and incubated for 2-3 hours. The Alphascreen plates were read on a Packard Fusion Alpha instrument.
Background: Alpha assays give light when donor and acceptor beads are brought close together.

For another experiment, the target named is T2, human JAK2 (Homo sapiens, UniProt O60674).
T2 construct: The kinase domain of human JAK2 was amplified; GST (N); made in house; host or cells: Sf9 (Spodoptera frugiperda) insect cells, baculovirus
T2 sequence (O60674 849-1124 limits assumed): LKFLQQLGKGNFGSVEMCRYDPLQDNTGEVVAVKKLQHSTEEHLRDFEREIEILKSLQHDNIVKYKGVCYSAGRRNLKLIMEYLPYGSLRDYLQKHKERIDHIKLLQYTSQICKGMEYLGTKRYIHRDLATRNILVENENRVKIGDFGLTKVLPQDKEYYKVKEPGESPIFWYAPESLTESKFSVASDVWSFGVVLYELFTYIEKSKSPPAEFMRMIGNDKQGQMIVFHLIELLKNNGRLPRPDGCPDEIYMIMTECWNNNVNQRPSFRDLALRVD
Put plainly: JAK2 kinase enzyme assay (Alphascreen). It is filed as biochemical. Conditions: 80 or 625 um ATP. How it is done:
as §6
The kinase domain of human JAK2 was amplified from U937mRNA using the polymerase chain reaction with the following primers: […]
The JAK2 PCR products were cloned into the pDest20 destination vector (Gibco). The JAK2 plasmid was then transformed into competent DH10Bac cells (Gibco), and the recombinant baculovirus was prepared via Sf9 insect cell transfection.
as §7, §8

The subject of another experiment is BAF3wt. As to the kind of experiment: Cellular screening, BaF3 wild-type cells (Alamar Blue). It is filed as cell-based. Particulars: Mus musculus, 40 hr incubation. How it is done:
as §1, §3, §4, §5

The subject of a further experiment is CTLL2. As to the kind of experiment: Cellular screening, CTLL2 cells (Alamar Blue). It is filed as cell-based. Conditions: Mus musculus, CTLL-2, 40 hr incubation. The procedure:
as §1, §4, §5

Broadly, the IC50 is the concentration needed to halve the response being measured.

`Nc1cccc(-c2csc3cnc(Nc4ccc(N5CCOCC5)cc4)nc23)c1` [Compound 4, 7-(3-aminophenyl)-N-(4-morpholinophenyl)thieno[3,2-d]pyrimidin-2-amine]: the IC50 with BafT_J3 was under 1000 nM; in the experiment with BafT_J2, under 1000 nM; on human JAK3, under 100 nM; against human JAK2 it was under 100 nM; in the experiment with BAF3wt, under 1000 nM; in the experiment on CTLL2, under 1000 nM.

With `CC(C)c1ccccc1-c1csc2cnc(Nc3ccc(N4CCOCC4)cc3)nc12` [Compound 37, 7-(2-isopropylphenyl)-N-(4-morpholinophenyl)thieno[3,2-d]pyrimidin-2-amine], the IC50 in the experiment with BafT_J3 is under 1000 nM; in the experiment on BafT_J2, under 1000 nM; on human JAK3 it was under 100 nM; against human JAK2, under 100 nM; in the experiment on BAF3wt it was under 1000 nM; with CTLL2 it was under 1000 nM.

Consider `CCc1ccccc1-c1csc2cnc(Nc3ccc(N4CCOCC4)cc3)nc12` [Compound 29, 7-(2-ethylphenyl)-N-(4-morpholinophenyl)thieno[3,2-d]pyrimidin-2-amine], for which the 50% inhibitory concentration (IC50) was under 1000 nM in the experiment with BafT_J3; under 1000 nM with BafT_J2; under 100 nM against human JAK3; under 100 nM on human JAK2; under 1000 nM in the experiment on BAF3wt; under 1000 nM with CTLL2.

Consider `NCc1ccc(-c2csc3cnc(Nc4ccc(CN5CCOCC5)cc4)nc23)cc1` [Compound 97, 7-(4-(aminomethyl)phenyl)-N-(4-(morpholinomethyl)phenyl)thieno[3,2-d]pyrimidin-2-amine], for which the 50% inhibitory concentration (IC50) is under 1000 nM with BafT_J3; under 1000 nM in the experiment with BafT_J2; under 100 nM at human JAK3; under 100 nM against human JAK2; under 1000 nM with BAF3wt; under 1000 nM in the experiment with CTLL2.

For `C=CC(=O)Nc1ccc(-c2csc3cnc(Nc4ccc(N5CCOCC5)cc4)nc23)cc1` [Compound 3, N-(4-(2-(4-morpholinophenylamino)thieno[3,2-d]pyrimidin-7-yl)phenyl)acrylamide], the IC50 in the experiment on BafT_J3 was under 1000 nM; with BafT_J2, under 5000 nM; against human JAK3 it was under 100 nM; against human JAK2, under 100 nM; with BAF3wt, under 5000 nM; with CTLL2, under 1000 nM.

In the case of `CC(C)c1ccccc1-c1csc2cnc(Nc3ccc(OCCN4CCCC4)cc3)nc12` [Compound 96], the concentration for half-maximal inhibition (IC50) in the experiment on BafT_J3 was under 1000 nM; in the experiment with BafT_J2, under 1000 nM; on human JAK3, under 100 nM; against human JAK2 it was under 100 nM; in the experiment on BAF3wt, under 1000 nM; in the experiment with CTLL2, under 1000 nM.

As to `c1cc(-c2csc3cnc(Nc4ccc(CN5CCOCC5)cc4)nc23)cc(N2CCNCC2)c1` [Compound 93, N-(4-(morpholinomethyl)phenyl)-7-(3-(piperazin-1-yl)phenyl)thieno[3,2-d]pyrimidin-2-amine], the half-inhibitory concentration (IC50) with BafT_J3 is under 1000 nM; in the experiment on BafT_J2 it was under 1000 nM; against human JAK3, under 100 nM; against human JAK2, under 100 nM; in the experiment with BAF3wt it was under 1000 nM; in the experiment on CTLL2, under 1000 nM.

Take `CC(C)(C)OC(=O)NCc1cccc(-c2csc3cnc(Nc4ccc(CN5CCOCC5)cc4)nc23)c1` [Compound 92]: the IC50 with BafT_J3 is under 5000 nM; in the experiment on BafT_J2, under 5000 nM; against human JAK3, under 500 nM; on human JAK2, under 100 nM; in the experiment on BAF3wt it was under 1000 nM; in the experiment on CTLL2, under 1000 nM.

Take `CCN1CCC(Oc2ccc(Nc3ncc4scc(-c5cccc(S(=O)(=O)NC(C)(C)C)c5)c4n3)cc2)CC1` [Compound 65, N-tert-butyl-3-(2-(4-(1-ethylpiperidin-4-yloxy)phenylamino)thieno[3,2-d]pyrimidin-7-yl)benzenesulfonamide]: the IC50 with BafT_J3 was under 1000 nM; in the experiment on BafT_J2, under 1000 nM; at human JAK3 it was under 100 nM; at human JAK2 it was under 100 nM; in the experiment on BAF3wt, under 5000 nM; in the experiment on CTLL2 it was under 5000 nM.

As to `COc1cc(-c2csc3cnc(Nc4ccc(CN5CCOCC5)cc4)nc23)ccc1NC(C)=O` [Compound 85, N-(2-methoxy-4-(2-(4-(morpholinomethyl)phenylamino)thieno[3,2-d]pyrimidin-7-yl)phenyl)acetamide], the concentration for half-maximal inhibition (IC50) in the experiment with BafT_J3 is under 1000 nM; in the experiment on BafT_J2, under 1000 nM; on human JAK3, under 100 nM; against human JAK2, under 100 nM; with BAF3wt, under 1000 nM; in the experiment on CTLL2, under 1000 nM.

As for `COc1ccc(Nc2ncc3scc(-c4cccnc4OC)c3n2)cc1OC` [Compound 52, N-(3,4-dimethoxyphenyl)-7-(2-methoxypyridin-3-yl)thieno[3,2-d]pyrimidin-2-amine], the IC50 in the experiment with BafT_J3 was under 1000 nM; in the experiment on BafT_J2, under 1000 nM; against human JAK3, under 100 nM; on human JAK2, under 100 nM; with BAF3wt, under 1000 nM; with CTLL2, under 1000 nM.

On to `CN1CCN(c2ccc(-c3csc4cnc(Nc5ccc(CN6CCOCC6)cc5)nc34)cc2)CC1` [Compound 84, 7-(4-(4-methylpiperazin-1-yl)phenyl)-N-(4-(morpholinomethyl)phenyl)thieno[3,2-d]pyrimidin-2-amine], for which the IC50 is under 1000 nM with BafT_J3; under 1000 nM with BafT_J2; under 500 nM on human JAK3; under 100 nM against human JAK2; under 1000 nM in the experiment with BAF3wt; under 1000 nM with CTLL2.

In the case of `N#CCNC(=O)c1cccc(-c2csc3cnc(Nc4ccc(N5CCOCC5)cc4)nc23)c1` [Compound 63, N-(cyanomethyl)-3-(2-(4-morpholinophenylamino)thieno[3,2-d]pyrimidin-7-yl)benzamide], the IC50 is under 1000 nM in the experiment on BafT_J3; under 1000 nM in the experiment on BafT_J2; under 100 nM at human JAK3; under 100 nM against human JAK2; under 1000 nM in the experiment with BAF3wt; under 1000 nM in the experiment on CTLL2.

These data come from patent US8765755B2, “N-containing heterocyclic compounds” (YM Biosciences Australia Pty Ltd, priority 2007, dated 2014).
